Results reported in PubChem BioAssay (NCI).
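Step 1: Grow cells in 96-well plates. Step 2: Expose to compound for 48 hours at 5 concentrations. Step 3: Interpolate endpoints linearly; if unreached, use highest concentration. GI50 marks 50% less growth. TGI is the concentration that stops growth completely.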

Experiments:
Experiment in all cases: growth of human tumour cells (NCI), 48 h
[1] = test system: HS 578T breast
[2] = test system: K-562 leukemia
[3] = test system: 786-0 renal
[4] = test system: HCT-116 colon
[5] = test system: MCF7 breast
[6] = test system: SK-OV-3 ovarian
[7] = test system: ACHN renal
[8] = test system: SK-MEL-5 melanoma
[9] = test system: HT29 colon
[10] = test system: SW-620 colon
[11] = test system: LOX IMVI melanoma
[12] = test system: MOLT-4 leukemia
[13] = test system: UACC-257 melanoma
[14] = test system: COLO 205 colon
[15] = test system: OVCAR-4 ovarian
[16] = test system: HOP-62 NSCLC
[17] = test system: SF-539 CNS
[18] = test system: NCI/ADR-RES ovarian
[19] = test system: NCI-H460 lung
[20] = test system: SK-MEL-2 melanoma
[21] = test system: SNB-19 CNS
[22] = test system: RPMI-8226 leukemia
[23] = test system: CCRF-CEM leukemia
[24] = test system: EKVX NSCLC
[25] = test system: A498 renal
[26] = test system: OVCAR-3 ovarian
[27] = test system: IGROV1 ovarian
[28] = test system: U251 CNS
[29] = test system: OVCAR-8 ovarian
[30] = test system: NCI-H23 lung
[31] = test system: NCI-H522 lung
[32] = test system: KM12 colon
[33] = test system: UACC-62 melanoma
[34] = test system: RXF 393 renal
[35] = test system: UO-31 renal
[36] = test system: BT-549 breast
[37] = test system: HCC-2998 colon
[38] = test system: PC-3 prostate
[39] = test system: SNB-75 CNS
[40] = test system: SK-MEL-28 melanoma
[41] = test system: SF-295 CNS
[42] = test system: OVCAR-5 ovarian
[43] = test system: SF-268 CNS
[44] = test system: HCT-15 colon
[45] = test system: MDA-MB-231 breast
[46] = test system: NCI-H226 lung
[47] = test system: M14 melanoma
[48] = test system: SN12C renal
[49] = test system: DU-145 prostate
[50] = test system: A549 NSCLC
[51] = test system: MDA-MB-435
[52] = test system: HOP-92 NSCLC
[53] = test system: T-47D breast
[54] = test system: CAKI-1 renal
[55] = test system: TK-10 renal
[56] = test system: HL-60(TB) leukemia
[57] = test system: MALME-3M melanoma

For `c1ccc(N2CCN(CN3CCN(c4ccccc4)C3)C2)cc1`, the GI50 [1] was over 100 µM, the TGI [1] was over 100 µM and the GI50 [2] was 3.9 µM. The TGI [2] was over 100 µM, the GI50 [3] was over 100 µM and the TGI [3] was over 100 µM. It also gave a GI50 [4] of 41.9 µM, a TGI [4] of over 100 µM and a GI50 [5] of over 100 µM. For the same molecule, the TGI [5] was over 100 µM, the GI50 [6] was over 100 µM and the TGI [6] was over 100 µM. For the same molecule, the GI50 [7] was 54 µM, the TGI [7] was over 100 µM and the GI50 [8] was over 100 µM. The TGI [8] was over 100 µM, the GI50 [9] was over 100 µM and the TGI [9] was over 100 µM. For the same molecule, the GI50 [10] was 60.7 µM, the TGI [10] was over 100 µM and the GI50 [11] was 66.6 µM. The TGI [11] was over 100 µM, the GI50 [12] was 23.8 µM and the TGI [12] was over 100 µM. The GI50 [13] was over 100 µM, the TGI [13] was over 100 µM and the GI50 [14] was over 100 µM. For the same molecule, the TGI [14] was over 100 µM, the GI50 [15] was over 100 µM and the TGI [15] was over 100 µM. It also gave a GI50 [16] of over 100 µM, a TGI [16] of over 100 µM and a GI50 [17] of over 100 µM. It also gave a TGI [17] of over 100 µM, a GI50 [18] of over 100 µM and a TGI [18] of over 100 µM. For the same molecule, the GI50 [19] was over 100 µM, the TGI [19] was over 100 µM and the GI50 [20] was over 100 µM. The TGI [20] was over 100 µM, the GI50 [21] was over 100 µM and the TGI [21] was over 100 µM. It also gave a GI50 [22] of 60.9 µM, a TGI [22] of over 100 µM and a GI50 [23] of 42 µM. The TGI [23] was over 100 µM, the GI50 [24] was over 100 µM and the TGI [24] was over 100 µM. For the same molecule, the GI50 [25] was 37.2 µM, the TGI [25] was over 100 µM and the GI50 [26] was over 100 µM. The TGI [26] was over 100 µM, the GI50 [27] was 25.5 µM and the TGI [27] was over 100 µM. It also gave a GI50 [28] of over 100 µM, a TGI [28] of over 100 µM and a GI50 [29] of over 100 µM. It also gave a TGI [29] of over 100 µM, a GI50 [30] of over 100 µM and a TGI [30] of over 100 µM. The GI50 [31] was over 100 µM, the TGI [31] was over 100 µM and the GI50 [32] was over 100 µM. It also gave a TGI [32] of over 100 µM, a GI50 [33] of over 100 µM and a TGI [33] of over 100 µM. The GI50 [34] was over 100 µM, the TGI [34] was over 100 µM and the GI50 [35] was over 100 µM. It also gave a TGI [35] of over 100 µM, a GI50 [36] of over 100 µM and a TGI [36] of over 100 µM. For the same molecule, the GI50 [37] was over 100 µM, the TGI [37] was over 100 µM and the GI50 [38] was over 100 µM. It also gave a TGI [38] of over 100 µM, a GI50 [39] of over 100 µM and a TGI [39] of over 100 µM. For the same molecule, the GI50 [40] was over 100 µM, the TGI [40] was over 100 µM and the GI50 [41] was over 100 µM. The TGI [41] was over 100 µM, the GI50 [42] was over 100 µM and the TGI [42] was over 100 µM. It also gave a GI50 [43] of over 100 µM, a TGI [43] of over 100 µM and a GI50 [44] of over 100 µM. For the same molecule, the TGI [44] was over 100 µM, the GI50 [45] was over 100 µM and the TGI [45] was over 100 µM. For the same molecule, the GI50 [46] was over 100 µM, the TGI [46] was over 100 µM and the GI50 [47] was over 100 µM. It also gave a TGI [47] of over 100 µM, a GI50 [48] of over 100 µM and a TGI [48] of over 100 µM. For the same molecule, the GI50 [49] was over 100 µM, the TGI [49] was over 100 µM and the GI50 [50] was over 100 µM. For the same molecule, the TGI [50] was over 100 µM, the GI50 [51] was over 100 µM and the TGI [51] was over 100 µM. It also gave a GI50 [52] of over 100 µM, a TGI [52] of over 100 µM and a GI50 [53] of over 100 µM. The TGI [53] was over 100 µM, the GI50 [54] was over 100 µM and the TGI [54] was over 100 µM.
`O=C1C[C@@H](c2ccc(O)cc2)[C@@]2(O1)C(=O)O[C@H]([C@@H](O)CO)[C@@H]2O` gave a TGI [1] of over 100 µM, a TGI [2] of over 100 µM and a TGI [55] of over 100 µM. The TGI [3] was over 100 µM, the TGI [4] was over 100 µM and the TGI [5] was over 100 µM. For the same molecule, the TGI [6] was over 100 µM, the TGI [7] was over 100 µM and the TGI [8] was over 100 µM. It also gave a TGI [9] of over 100 µM, a TGI [10] of over 100 µM and a TGI [11] of over 100 µM. The TGI [12] was over 100 µM, the TGI [13] was over 100 µM and the TGI [14] was over 100 µM. The TGI [56] was over 100 µM, the TGI [15] was over 100 µM and the TGI [17] was over 100 µM. The TGI [18] was over 100 µM, the TGI [19] was over 100 µM and the TGI [20] was over 100 µM. It also gave a TGI [21] of over 100 µM, a TGI [22] of over 100 µM and a TGI [23] of over 100 µM. The TGI [24] was over 100 µM, the TGI [25] was over 100 µM and the TGI [26] was over 100 µM. It also gave a TGI [27] of over 100 µM, a TGI [28] of over 100 µM and a TGI [29] of over 100 µM. The TGI [30] was over 100 µM, the TGI [31] was over 100 µM and the TGI [32] was over 100 µM. For the same molecule, the TGI [33] was over 100 µM, the TGI [35] was over 100 µM and the TGI [36] was over 100 µM. For the same molecule, the TGI [37] was over 100 µM, the TGI [38] was over 100 µM and the TGI [39] was over 100 µM. It also gave a TGI [40] of over 100 µM, a TGI [41] of over 100 µM and a TGI [42] of over 100 µM. The TGI [43] was over 100 µM, the TGI [44] was over 100 µM and the TGI [45] was over 100 µM. For the same molecule, the TGI [46] was over 100 µM, the TGI [47] was over 100 µM and the TGI [48] was over 100 µM. It also gave a TGI [49] of over 100 µM, a TGI [50] of over 100 µM and a TGI [51] of over 100 µM. For the same molecule, the TGI [57] was over 100 µM, the TGI [52] was over 100 µM and the TGI [53] was over 100 µM. For the same molecule, the TGI [54] was over 100 µM.
